Measurements: US20230295118A1 (EnhancedBio Inc., priority 2022, published 2023)

How the values were obtained:
Format in all cases: cell-based
[1] = tested on: mantle cell lymphoma cell (Mino or JeKo-1); assay: Antiproliferative effect, MTS cell viability assay; conditions: 72 h; for IC50: mantle cell lymphoma cell (Mino or JeKo-1), MTS assay, read-out: IC50 (anti-proliferation)
Procedure, shortened: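 Mino cells treated with compounds at 0, 0.0001, 0.001, 0.01, 0.1, 1 μM for 72 h; palbociclib and abemaciclib as positive controls. Viability by MTS, formazan absorbance read at 490 nm.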

CDK4 = biological target: T1, CDK4 (Homo sapiens, UniProt P11802); assay: CDK4 degradation (DC50, Dmax)
T1 construct: endogenous in cells

CDK6 = biological target: T2, CDK6 (Homo sapiens, UniProt Q00534); assay: CDK6 degradation (DC50, Dmax)
T2 construct: endogenous in cells
T2 sequence (Q00534 whole entry): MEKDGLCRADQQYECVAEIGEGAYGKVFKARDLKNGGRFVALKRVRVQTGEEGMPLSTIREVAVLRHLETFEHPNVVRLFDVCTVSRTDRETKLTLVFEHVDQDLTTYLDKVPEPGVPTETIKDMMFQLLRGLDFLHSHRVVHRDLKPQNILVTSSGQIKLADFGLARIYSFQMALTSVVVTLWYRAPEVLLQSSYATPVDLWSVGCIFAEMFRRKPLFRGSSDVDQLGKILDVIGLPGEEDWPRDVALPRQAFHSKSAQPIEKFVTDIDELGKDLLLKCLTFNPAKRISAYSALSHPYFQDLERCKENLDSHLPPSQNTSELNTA

T1 sequence (P11802 whole entry): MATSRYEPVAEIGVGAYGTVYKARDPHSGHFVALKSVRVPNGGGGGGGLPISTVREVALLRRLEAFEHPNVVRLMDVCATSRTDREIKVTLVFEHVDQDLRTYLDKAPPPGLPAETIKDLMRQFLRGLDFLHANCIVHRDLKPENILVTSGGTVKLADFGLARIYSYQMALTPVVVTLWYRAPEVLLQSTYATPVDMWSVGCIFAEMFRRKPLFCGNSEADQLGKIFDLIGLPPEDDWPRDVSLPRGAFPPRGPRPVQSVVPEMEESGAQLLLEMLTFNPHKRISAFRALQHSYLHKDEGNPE

SMILES | IC50 [1] [nM] | DC50 (CDK4) [nM] | Dmax (CDK4) [%] | DC50 (CDK6) [nM] | Dmax (CDK6) [%] | inhibition of cell proliferation of Mino cells ([1]; Mino cells, 0-1 μM, result in words)
Cc1nc2c(F)cc(-c3nc(Nc4ccc(CN5CCN(CCCNc6ccc7c(c6)CN(C6CCC(=O)NC6=O)C7=O)CC5)cn4)ncc3F)cc2n1C(C)C (stereo not drawn) [Compound 74, 3-(5-((3-(4-((6-((5-fluoro-4-(4-fluoro-1-isopropyl-2-methyl-1H-benzo[d]imidazol-6-yl)pyrimidin-2-yl)amino)pyridin-3-yl)methyl)piperazin-1-yl)propyl)amino)-1-oxoisoindolin-2-yl)piperidine-2,6-dione] | < 50 | < 50 | > 80 | < 50 | > 80 | 
CN(C)C(=O)c1cc2cnc(Nc3ccc(N4CCN(CCCNc5ccc6c(c5)C(=O)N(C5CCC(=O)NC5=O)C6=O)CC4)cn3)nc2n1C1CCCC1 (stereo not drawn) [Compound 75, 7-cyclopentyl-2-((5-(4-(3-((2-(2,6-dioxopiperidin-3-yl)-1,3-dioxoisoindolin-5-yl)amino)propyl)piperazin-1-yl)pyridin-2-yl)amino)-N,N-dimethyl-7H-pyrrolo[2,3-d]pyrimidine-6-carboxamide] | < 50 | < 50 | > 80 | < 50 | > 80 | 
CN(C)C(=O)c1cc2cnc(Nc3ccc(N4CCN(CCCNc5ccc6c(c5)CN(C5CCC(=O)NC5=O)C6=O)CC4)cn3)nc2n1C1CCCC1 (stereo not drawn) [Compound 76, 7-cyclopentyl-2-((5-(4-(3-((2-(2,6-dioxopiperidin-3-yl)-1-oxoisoindolin-5-yl)amino)propyl)piperazin-1-yl)pyridin-2-yl)amino)-N,N-dimethyl-7H-pyrrolo[2,3-d]pyrimidine-6-carboxamide] | < 50 | < 50 | > 80 | < 50 | > 80 | dose-dependent inhibition of cell proliferation
CC(=O)c1c(C)c2cnc(Nc3ccc(N4CCN(C5CN(c6cccc7c6C(=O)N(C6CCC(=O)NC6=O)C7=O)C5)CC4)cn3)nc2n(C2CCCC2)c1=O (stereo not drawn) [Compound 79, 4-(3-(4-(6-((6-acetyl-8-cyclopentyl-5-methyl-7-oxo-7,8-dihydropyrido[2,3-d]pyrimidin-2-yl)amino)pyridin-3-yl)piperazin-1-yl)azetidin-1-yl)-2-(2,6-dioxopiperidin-3-yl)isoindoline-1,3-dione] | 50 to 200 | 50 to 200 | > 60 | 50 to 200 | > 60 | 
CC(=O)c1c(C)c2cnc(Nc3ccc(N4CCN(CC5CN(c6cccc7c6C(=O)N(C6CCC(=O)NC6=O)C7=O)C5)CC4)cn3)nc2n(C2CCCC2)c1=O (stereo not drawn) [Compound 81, 4-(3-((4-(6-((6-acetyl-8-cyclopentyl-5-methyl-7-oxo-7,8-dihydropyrido[2,3-d]pyrimidin-2-yl)amino)pyridin-3-yl)piperazin-1-yl)methyl)azetidin-1-yl)-2-(2,6-dioxopiperidin-3-yl) isoindoline-1,3-dione] | < 50 | 50 to 200 | > 80 | 50 to 200 | > 80 | 
CC(=O)c1c(C)c2cnc(Nc3ccc(N4CCN(CC5CCN(C(=O)N6CCC(C7CCN(c8ccc9c(c8)C(=O)N(C8CCC(=O)NC8=O)C9=O)CC7)CC6)CC5)CC4)cn3)nc2n(C2CCCC2)c1=O (stereo not drawn) [Compound 82, 5-(1′-(4-((4-(6-((6-acetyl-8-cyclopentyl-5-methyl-7-oxo-7,8-dihydropyrido[2,3-d]pyrimidin-2-yl)amino)pyridin-3-yl)piperazin-1-yl)methyl)piperidine-1-carbonyl)-[4,4′-bipiperidin]-1-yl)-2-(2,6-dioxopiperidin-3-yl) isoindoline-1,3-dione] | > 200 | > 200 | > 50 | > 200 | > 50 | 
CC(=O)c1c(C)c2cnc(Nc3ccc(N4CCN(CC5CCN(C(=O)N6CCC(CCN7CCN(c8ccc9c(c8)C(=O)N(C8CCC(=O)NC8=O)C9=O)CC7)CC6)CC5)CC4)cn3)nc2n(C2CCCC2)c1=O (stereo not drawn) [Compound 83, 5-(4-(2-(1-(4-((4-(6-((6-acetyl-8-cyclopentyl-5-methyl-7-oxo-7,8-dihydropyrido[2,3-d]pyrimidin-2-yl)amino)pyridin-3-yl)piperazin-1-yl)methyl)piperidine-1-carbonyl)piperidin-4-yl)ethyl)piperazin-1-yl)-2-(2,6-dioxopiperidin-3-yl) isoindoline-1,3-dione] | > 200 | > 200 | > 50 | > 200 | > 50 | 
CC(=O)c1c(C)c2cnc(Nc3ccc(N4CCN(CC5CCN(C(=O)N6CCC(CN7CCN(c8ccc9c(c8)C(=O)N(C8CCC(=O)NC8=O)C9=O)CC7)CC6)CC5)CC4)cn3)nc2n(C2CCCC2)c1=O (stereo not drawn) [Compound 84, 5-(4-((1-(4-((4-(6-((6-acetyl-8-cyclopentyl-5-methyl-7-oxo-7,8-dihydropyrido[2,3-d]pyrimidin-2-yl)amino)pyridin-3-yl)piperazin-1-yl)methyl)piperidine-1-carbonyl)piperidin-4-yl)methyl)piperazin-1-yl)-2-(2,6-dioxopiperidin-3-yl) isoindoline-1,3-dione] | < 50 | 50 to 200 | > 80 | 50 to 200 | > 80 | 

Second part, led by results:

IC50 [1] [nM] | DC50 (CDK4) [nM] | Dmax (CDK4) [%] | DC50 (CDK6) [nM] | Dmax (CDK6) [%] | SMILES | inhibition of cell proliferation of Mino cells ([1]; Mino cells, 0-1 μM, result in words)
50 to 200 | 50 to 200 | > 60 | 50 to 200 | > 80 | CC(=O)c1c(C)c2cnc(Nc3ccc(N4CCN(CCN5CCN(c6ccc7c(c6)CN(C6CCC(=O)NC6=O)C7=O)CC5)CC4)cn3)nc2n(C2CCCC2)c1=O (stereo not drawn) [Compound 68, 3-(5-(4-(2-(4-(6-((6-acetyl-8-cyclopentyl-5-methyl-7-oxo-7,8-dihydropyrido[2,3-d]pyrimidin-2-yl)amino)pyridin-3-yl)piperazin-1-yl)ethyl)piperazin-1-yl)-1-oxoisoindolin-2-yl)piperidine-2,6-dione] | 
50 to 200 | 50 to 200 | > 60 | 50 to 200 | > 60 | CC(=O)c1c(C)c2cnc(Nc3ccc(N4CCN(CCC5CCN(c6ccc7c(c6)C(=O)N(C6CCC(=O)NC6=O)C7=O)CC5)CC4)cn3)nc2n(C2CCCC2)c1=O (stereo not drawn) [Compound 69, 5-(4-(2-(4-(6-((6-acetyl-8-cyclopentyl-5-methyl-7-oxo-7,8-dihydropyrido[2,3-d]pyrimidin-2-yl)amino)pyridin-3-yl)piperazin-1-yl)ethyl)piperidin-1-yl)-2-(2,6-dioxopiperidin-3-yl)isoindoline-1,3-dione] | 
50 to 200 | 50 to 200 | > 50 | 50 to 200 | > 60 | CC(=O)c1c(C)c2cnc(Nc3ccc(N4CCN(CCC5CCN(c6ccc7c(c6)CN(C6CCC(=O)NC6=O)C7=O)CC5)CC4)cn3)nc2n(C2CCCC2)c1=O (stereo not drawn) [Compound 70, 3-(5-(4-(2-(4-(6-((6-acetyl-8-cyclopentyl-5-methyl-7-oxo-7,8-dihydropyrido[2,3-d]pyrimidin-2-yl)amino)pyridin-3-yl)piperazin-1-yl)ethyl)piperidin-1-yl)-1-oxoisoindolin-2-yl) piperidine-2,6-dione] | 
50 to 200 | > 200 | > 60 | > 200 | > 60 | CC(=O)c1c(C)c2cnc(Nc3ccc(N4CCN(CCN5CCC(c6ccc7c(c6)C(=O)N(C6CCC(=O)NC6=O)C7=O)CC5)CC4)cn3)nc2n(C2CCCC2)c1=O (stereo not drawn) [Compound 71, 5-(1-(2-(4-(6-((6-acetyl-8-cyclopentyl-5-methyl-7-oxo-7,8-dihydropyrido[2,3-d]pyrimidin-2-yl)amino)pyridin-3-yl)piperazin-1-yl)ethyl)piperidin-4-yl)-2-(2,6-dioxopiperidin-3-yl)isoindoline-1,3-dione] | 
50 to 200 | 50 to 200 | > 60 | > 200 | > 50 | CC(=O)c1c(C)c2cnc(Nc3ccc(N4CCN(CCN5CCC(c6ccc7c(c6)CN(C6CCC(=O)NC6=O)C7=O)CC5)CC4)cn3)nc2n(C2CCCC2)c1=O (stereo not drawn) [Compound 72, 3-(5-(1-(2-(4-(6-((6-acetyl-8-cyclopentyl-5-methyl-7-oxo-7,8-dihydropyrido[2,3-d]pyrimidin-2-yl)amino)pyridin-3-yl)piperazin-1-yl)ethyl)piperidin-4-yl)-1-oxoisoindolin-2-yl)piperidine-2,6-dione] | 
50 to 200 | 50 to 200 | > 60 | 50 to 200 | > 60 | CC(=O)c1c(C)c2cnc(Nc3ccc(N4CCN(C5CCN(c6cccc7c6C(=O)N(C6CCC(=O)NC6=O)C7=O)CC5)CC4)cn3)nc2n(C2CCCC2)c1=O (stereo not drawn) [Compound 77, 4-(4-(4-(6-((6-acetyl-8-cyclopentyl-5-methyl-7-oxo-7,8-dihydropyrido[2,3-d]pyrimidin-2-yl)amino)pyridin-3-yl)piperazin-1-y1)piperidin-1-yl)-2-(2,6-dioxopiperidin-3-yl) isoindoline-1,3-dione] | 
50 to 200 | 50 to 200 | > 60 | 50 to 200 | > 60 | CC(=O)c1c(C)c2cnc(Nc3ccc(N4CCN(CC5CCN(c6cccc7c6C(=O)N(C6CCC(=O)NC6=O)C7=O)CC5)CC4)cn3)nc2n(C2CCCC2)c1=O (stereo not drawn) [Compound 78, 4-(4-((4-(6-((6-acetyl-8-cyclopentyl-5-methyl-7-oxo-7,8-dihydropyrido[2,3-d]pyrimidin-2-yl)amino)pyridin-3-yl)piperazin-1-yl)methyl)piperidin-1-yl)-2-(2,6-dioxopiperidin-3-yl) isoindoline-1,3-dione] | 
< 50 | < 50 | > 80 | < 50 | > 80 | CC(=O)c1c(C)c2cnc(Nc3ccc(N4CCN(CC5CN(c6ccc7c(c6)C(=O)N(C6CCC(=O)NC6=O)C7=O)C5)CC4)cn3)nc2n(C2CCCC2)c1=O (stereo not drawn) [Compound 80, 5-(3-((4-(6-((6-acetyl-8-cyclopentyl-5-methyl-7-oxo-7,8-dihydropyrido[2,3-d]pyrimidin-2-yl)amino)pyridin-3-yl)piperazin-1-yl)methyl)azetidin-1-yl)-2-(2,6-dioxopiperidin-3-yl) isoindoline-1,3-dione] | 
